Measurements taken from patent US7098340B2, “Benzyl sulfonamide derivatives” (Warner Lambert Company LLC, priority 2003, dated 2006).

Target: T1, androgen receptor (Homo sapiens, UniProt P10275)
T1 sequence (P10275 1-920 Q868H): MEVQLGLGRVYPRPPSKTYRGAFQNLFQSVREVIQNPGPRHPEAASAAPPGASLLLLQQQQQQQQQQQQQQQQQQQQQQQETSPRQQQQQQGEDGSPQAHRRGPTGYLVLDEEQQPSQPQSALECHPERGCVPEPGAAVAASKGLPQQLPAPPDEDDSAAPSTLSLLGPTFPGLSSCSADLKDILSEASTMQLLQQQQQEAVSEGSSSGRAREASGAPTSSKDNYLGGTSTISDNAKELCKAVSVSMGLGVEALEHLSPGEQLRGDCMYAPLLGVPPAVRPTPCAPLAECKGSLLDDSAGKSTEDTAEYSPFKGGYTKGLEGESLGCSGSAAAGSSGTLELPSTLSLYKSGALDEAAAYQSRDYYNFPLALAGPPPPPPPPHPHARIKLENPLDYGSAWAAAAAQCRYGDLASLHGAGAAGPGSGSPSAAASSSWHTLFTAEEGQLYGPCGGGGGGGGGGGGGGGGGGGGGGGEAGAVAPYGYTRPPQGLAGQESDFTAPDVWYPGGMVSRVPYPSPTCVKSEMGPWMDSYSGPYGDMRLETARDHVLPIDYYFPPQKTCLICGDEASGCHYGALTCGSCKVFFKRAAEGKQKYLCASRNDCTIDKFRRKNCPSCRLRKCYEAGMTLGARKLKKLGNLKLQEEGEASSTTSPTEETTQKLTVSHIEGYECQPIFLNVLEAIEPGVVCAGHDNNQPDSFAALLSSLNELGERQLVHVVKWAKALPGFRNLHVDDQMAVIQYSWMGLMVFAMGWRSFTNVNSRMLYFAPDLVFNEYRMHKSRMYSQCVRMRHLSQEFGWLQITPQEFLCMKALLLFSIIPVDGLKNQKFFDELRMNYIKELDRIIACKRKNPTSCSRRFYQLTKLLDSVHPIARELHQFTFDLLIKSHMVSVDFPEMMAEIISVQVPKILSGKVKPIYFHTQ
Experiment: AR Antagonist Cell Assay (MMTV-luciferase reporter, DHT-stimulated)
Type: cell-based
Conditions: MDA-MB453-MMTV clone 54-19 cells; antagonism of 100 pM DHT, 17 hr, luciferase readout
Procedure: The compounds ability to antagonize the effects of androgen on the androgen receptor were determined in the protocol described immediately below.
Experimental Procedure for AR Antagonist Cell Assay
Cell line: MDA-MB453-MMTV clone 54–19. This cell line is a stable transfected cell line with MDA-MB453 cell background (human breast tumor cell expressing high level of androgen receptor). A MMTV minimal promoter containing ARE was first cloned in front of a firefly luciferase reporter gene. Then the cascade was cloned into transfection vector pUV120puro. Electroporation method was used for transfecting MDA-MB-453 cell. Puromycin resistant stable cell line was selected.
Cell Culture Media and Reagents:
Culture medium: DMEM (high glucose, Gibco cat #: 11960-044), 10% FBS, and 1% L-glutamine
Plating medium: DMEM (phenol red free), 10% charcoal treated HyClone serum, 1% L-glutamine
Assay medium: DMEM (phenol red free), 1% charcoal treated HyClone serum, 1% L-glutamine, and 1% penicillin/streptomycin
3× luciferase buffer: 2% beta-mercaptoethanol, 0.6% ATP, 0.0135% luciferine in cell lysis buffer
• 1. Cells are maintained in culture medium, splitting cells when they reach 80–90% confluence • 2. To test compounds, 10,000 cells/well are plated to opaque 96 cell culture plate in 100 ul/well plating medium, culture for overnight at 37° C. in cell culture incubator • 3. Carefully remove plating medium, then add 80 ul/well of pre-warmed assay medium, add 10 ul/well testing compound (final concentration at 10 uM or 1 uM), incubate at 37° C. for 30 minutes • 4. Add 10 ul/well freshly prepared DHT (final concentration at 100 pM) to each well, incubate at 37° C. for 17 hr (overnight) • 5. Add 50 ul/well 3× luciferase buffer, incubate at room temperature for 5 minutes, then count on Luminometer.
The fold induction over background by 100 pM DHT in the absence of testing compounds is standardized as 100% and experimental result is expressed as percentage of inhibition by testing compounds.

IC50, 2.8 µM:
O=c1cc(C(F)(F)F)c2cc(Cc3ccc(S(=O)(=O)Nc4cccc(OCc5ccccc5)c4)cc3)ccc2[nH]1 [Example 44, N-(3-Benzyloxyphenyl)-4-(2-oxo-4-trifluoromethyl-1,2-dihydroquinolin-6-ylmethyl)-benzenesulfonamide]

IC50, 6.14 µM:
O=c1cc(C(F)(F)F)c2cc(Cc3ccc(S(=O)(=O)Nc4cccc(OC(F)F)c4)cc3)ccc2[nH]1 [Example 36, N-(3-Difluoromethoxyphenyl)-4-(2-oxo-4-trifluoromethyl-1,2-dihydroquinolin-6-ylmethyl)-benzenesulfonamide]

IC50, 8.02 µM:
CSc1n[nH]c(NS(=O)(=O)c2ccc(Cc3ccc4[nH]c(=O)cc(C(F)(F)F)c4c3)cc2)c1C#N [Example 32, N-(4-Cyano-5-methylsulfanyl-2H-pyrazol-3-yl)-4-(2-oxo-4-trifluoromethyl-1,2-dihydroquinolin-6-ylmethyl)-benzenesulfonamide]

IC50, 4.97 µM:
CC(C)N(c1ccccc1)c1ccc(NS(=O)(=O)c2ccc(Cc3ccc4[nH]c(=O)cc(C(F)(F)F)c4c3)cc2)cc1 [Example 48, N-[4-(Isopropylphenylamino)-phenyl]-4-(2-oxo-4-trifluoromethyl-1,2-dihydroquinolin-6-ylmethyl)-benzenesulfonamide]

IC50, > 10 µM:
O=c1cc(C(F)(F)F)c2cc(Cc3ccc(S(=O)(=O)Nc4cccc5ncccc45)cc3)ccc2[nH]1 [Example 29, 4-(2-Oxo-4-trifluoromethyl-1,2-dihydroquinolin-6-ylmethyl)-N-quinolin-5-ylbenzenesulfonamide]
O=c1cc(C(F)(F)F)c2cc(Cc3ccc(S(=O)(=O)Nc4cccc5cccnc45)cc3)ccc2[nH]1 [Example 30, 4-(2-Oxo-4-trifluoromethyl-1,2-dihydroquinolin-6-ylmethyl)-N-quinolin-8-ylbenzenesulfonamide]
O=c1cc(C(F)(F)F)c2cc(Cc3ccc(S(=O)(=O)Nc4cccc5cnccc45)cc3)ccc2[nH]1 [Example 31, N-Isoquinolin-5-yl-4-(2-oxo-4-trifluoromethyl-1,2-dihydroquinolin-6-ylmethyl)-benzenesulfonamide]
COc1ccc(OC)c(NS(=O)(=O)c2ccc(Cc3ccc4[nH]c(=O)cc(C(F)(F)F)c4c3)cc2)c1 [Example 33, N-(2,5-Dimethoxyphenyl)-4-(2-oxo-4-trifluoromethyl-1,2-dihydroquinolin-6-ylmethyl)-benzenesulfonamide]
COc1cc(NS(=O)(=O)c2ccc(Cc3ccc4[nH]c(=O)cc(C(F)(F)F)c4c3)cc2)cc(OC)c1 [Example 34, N-(3,5-Dimethoxyphenyl)-4-(2-oxo-4-trifluoromethyl-1,2-dihydroquinolin-6-ylmethyl)-benzenesulfonamide]
O=c1cc(C(F)(F)F)c2cc(Cc3ccc(S(=O)(=O)Nc4cc(F)c(F)c(F)c4)cc3)ccc2[nH]1 [Example 35, 4-(2-Oxo-4-trifluoromethyl-1,2-dihydroquinolin-6-ylmethyl)-N-(3,4,5-trifluorophenyl)-benzenesulfonamide]
O=c1cc(C(F)(F)F)c2cc(Cc3ccc(S(=O)(=O)Nc4cc(-c5ccccc5)n[nH]4)cc3)ccc2[nH]1 [Example 37, 4-(2-Oxo-4-trifluoromethyl-1,2-dihydroquinolin-6-ylmethyl)-N-(5-phenyl-2H-pyrazol-3-yl)-benzenesulfonamide]
O=c1cc(C(F)(F)F)c2cc(Cc3ccc(S(=O)(=O)Nc4cccc(-c5cnco5)c4)cc3)ccc2[nH]1 [Example 38, N-(3-Oxazol-5-ylphenyl)-4-(2-oxo-4-trifluoromethyl-1,2-dihydroquinolin-6-ylmethyl)benzenesulfonamide]
O=c1cc(C(F)(F)F)c2cc(Cc3ccc(S(=O)(=O)Nc4cccc(C(F)(F)F)c4)cc3)ccc2[nH]1 [Example 39, 4-(2-Oxo-4-trifluoromethyl-1,2-dihydroquinolin-6-ylmethyl)-N-(3-trifluoromethylphenyl)-benzenesulfonamide]
O=c1cc(C(F)(F)F)c2cc(Cc3ccc(S(=O)(=O)Nc4ccccc4N4CCCCC4)cc3)ccc2[nH]1 [Example 41, 4-(2-Oxo-4-trifluoromethyl-1,2-dihydroquinolin-6-ylmethyl)-N-(2-piperidin-1-ylphenyl)-benzenesulfonamide]
O=c1cc(C(F)(F)F)c2cc(Cc3ccc(S(=O)(=O)Nc4cccc(OC(F)(F)F)c4)cc3)ccc2[nH]1 [Example 42, 4-(2-Oxo-4-trifluoromethyl-1,2-dihydroquinolin-6-ylmethyl)-N-(3-trifiuoromethoxyphenyl)-benzenesulfonamide]
O=c1cc(C(F)(F)F)c2cc(Cc3ccc(S(=O)(=O)Nc4cccc(Cc5ccccc5)c4)cc3)ccc2[nH]1 [Example 43, N-(3-Benzylphenyl)-4-(2-oxo-4-trifluoromethyl-1,2-dihydroquinolin-6-ylmethyl)-benzenesulfonamide]
COc1ccc(N(Cc2ccccc2)S(=O)(=O)c2ccc(Cc3ccc4[nH]c(=O)cc(C(F)(F)F)c4c3)cc2)cc1 [Example 45, N-Benzyl-N-(4-methoxyphenyl)-4-(2-oxo-4-trifluoromethyl-1,2-dihydroquinolin-6-ylmethyl)-benzenesulfonamide]
O=c1cc(C(F)(F)F)c2cc(Cc3ccc(S(=O)(=O)Nc4cccc5c4OC(F)(F)C(F)(F)O5)cc3)ccc2[nH]1 [Example 47, 4-(2-Oxo-4-trifluoromethyl-1,2-dihydroquinolin-6-ylmethyl)-N-(2,2,3,3-tetrafluoro-2,3-dihydrobenzo[1,4]dioxin-5-yl)-benzenesufonamide]
O=c1cc(C(F)(F)F)c2cc(Cc3ccc(S(=O)(=O)Nc4ccc(-n5ccc(C(F)(F)F)n5)cc4)cc3)ccc2[nH]1 [Example 49, 4-(2-Oxo-4-trifluoromethyl-1,2-dihydroquinolin-6-ylmethyl)-N-[4-(3-trifluoromethylpyrazol-1-yl)phenyl]-benzenesulfonamide]
COc1cccc(NS(=O)(=O)c2ccc(Cc3ccc4[nH]c(=O)cc(C(F)(F)F)c4c3)cc2)c1 [Example 50, N-(3-Methoxyphenyl)-4-(2-oxo-4-trifluoromethyl-1,2-dihydroquinolin-6-ylmethyl)-benzenesulfonamide]
COCCNS(=O)(=O)c1ccc(Cc2ccc3[nH]c(=O)cc(C(F)(F)F)c3c2)cc1 [Example 53, N-(2-Methoxyethyl)-4-(2-oxo-4-trifluoromethyl-1,2-dihydroquinolin-6-ylmethyl)-benzenesulfonamide]

IC50, 2.18 µM:
O=c1cc(C(F)(F)F)c2cc(Cc3ccc(S(=O)(=O)NCCO)cc3)ccc2[nH]1 [Example 51, N-(2-Hydroxyethyl)-4-(2-oxo-4-trifluoromethyl-1,2-dihydroquinolin-6-ylmethyl)-benzenesulfonamide]

IC50, 5.61 µM:
O=c1cc(C(F)(F)F)c2cc(Cc3ccc(S(=O)(=O)Nc4ccccc4Br)cc3)ccc2[nH]1 [Example 40, N-(2-Bromophenyl)-4-(2-oxo-4-trifluoromethyl-1,2-dihydroquinolin-6-ylmethyl)-benzenesulfonamide]

IC50, 9.9 µM:
O=c1cc(C(F)(F)F)c2cc(Cc3ccc(S(=O)(=O)NC4CCN(Cc5ccccc5)CC4)cc3)ccc2[nH]1 [Example 52, N-(1-Benzylpipendin-4-yl)-4-(2-oxo-4-trifluoromethyl-1,2-dihydroquinolin-6-ylmethyl)-benzenesulfonamide]
